Assay results published in patent US20100159093A1, “METHOD OF TREATING FOODSTUFF” (priority 2008, published 2010).

Key:
[1] = test system: psychrotrophic P. fluorescens strain; settings: sterile milk, 4° C., Skura et al.; cited from earlier work
[2] = test system: bacteria producing phospholipase; assay: Number of phospholipase-producing bacteria (aerobic cultivation) in raw milk under nitrogen gas; assay type: cell-based
Procedure: (§1) With the device shown in FIG. 1, the effect of nitrogen gas on the natural microflora in raw milk (volume approximately 125 ml) was examined by replacing the air (control) in an open vessel (volume approximately 250 ml) at a constant temperature, with a flow-through of 100% nitrogen gas (purity 99.999%, manufacturer AGA) at two different flow-through rates: N1=120 ml/min, N2=40 ml/min.
(§2) The temperature of the raw milk in the sample bottles was adjusted by means of the thermostat (14) of the water bath to bring the temperature of the milk to 6.0° C., 7.0° C. or 12.0° C. The temperature variation in the vessel was less than ±0.1° C.
(§3) The effect of nitrogen gas on the growth of the microflora in a raw milk sample at 12.0° C. Two flow-through rates of the nitrogen gas were used in the study: (▴) 40 ml/min and ([…]) 120 ml/min. […] The following bacterial levels were determined in the samples:
FIGS. 7A-C show the effect, in three different samples of raw milk (samples A, B and C), of nitrogen gas at 6.0° C. on the number of the bacteria which produce phospholipase. Two flow-through rates of the nitrogen gas were used in the study: (▴) 40 ml/min, i.e. the N2 environment, and ([…]) 120 ml/min, i.e. the N1 environment.

[3] = test system: anaerobically cultivated phospholipase-producing bacteria; assay: Number of anaerobically cultivated phospholipase-producing bacteria in raw milk under nitrogen gas; assay type: cell-based; settings: 12.0° C., FIG. 5K
Procedure: (§4) With the device shown in FIG. 1, the effect of nitrogen gas on the natural microflora in raw milk (volume approximately 125 ml) was examined by replacing the air (control) in an open vessel (volume approximately 250 ml) at a constant temperature, with a flow-through of 100% nitrogen gas (purity 99.999%, manufacturer AGA) at two different flow-through rates: N1=120 ml/min, N2=40 ml/min. The temperature of the raw milk in the sample bottles was adjusted by means of the thermostat (14) of the water bath to bring the temperature of the milk to 6.0° C., 7.0° C. or 12.0° C. The temperature variation in the vessel was less than ±0.1° C. The effect of nitrogen gas on the growth of the microflora in a raw milk sample at 12.0° C. Two flow-through rates of the nitrogen gas were used in the study: (▴) 40 ml/min and ([…]) 120 ml/min. […] The following bacterial levels were determined in the samples: FIG. 5A: Total bacteria count (p.m.y./ml) FIG. 5B: Total number of psychrotrophs (p.m.y./ml) FIG. 5C: Total number of proteolytic bacteria (p.m.y./ml) FIG. 5D: Total number of lipolytic bacteria (p.m.y./ml) FIG. 5E: Total number of bacteria producing phospholipase (p.m.y./ml). […]

anaerobic microbes = assay: Growth of anaerobically cultivated bacteria in raw milk under nitrogen gas; assay type: cell-based; settings: 12.0° C., N1 environment (120 ml/min), Example 5, FIG. 5H
Procedure: as §4

[4] = test system: psychrotrophic bacteria in raw milk and lactic acid bacteria; settings: 4° C., closed vessel, Murray et al.; cited from earlier work
Bacillus cereus = assay: Number of Bacillus cereus bacteria in raw milk (MYP dish) under nitrogen gas; assay type: cell-based; settings: 6.0° C., N2 environment (40 ml/min), after 7 days
Procedure: as §1
Two flow-through rates of the nitrogen gas were used in the study; (N2) 40 ml/min and (N1) 120 ml/min.

haemolytic bacteria = assay: Number of haemolytic bacteria in raw milk (blood culture dishes) under nitrogen gas; assay type: cell-based; settings: 12.0° C., following four days of treatment
Source text: It is possible to measure the effectiveness of nitrogen gas for preventing growth of phospholipase for instance as a difference in the number of haemolytic microbes in the foodstuff or foodstuff material, which is an indication of the growth-preventing effect of the nitrogen gas, which effect is directed at the microbes, which produce phospholipase-transmitted virulence factors (see Example 6 below).
as §1
Two flow-through rates of the nitrogen gas were used in the study: (grey) 40 ml/min and (black) 120 ml/min.

four Pseudomonas strains = settings: 15° C., Eyles et al.; cited from earlier work
[5] = test system: aerobic spores, such as B. cereus; assay: Aerobic spore count in raw milk under nitrogen gas; assay type: cell-based; settings: 12.0° C., N1 environment (120 ml/min), Example 5, FIG. 5F
Procedure: as §1, §2, §3
FIG. 5A: Total bacteria count (p.m.y./ml) FIG. 5B: Total number of psychrotrophs (p.m.y./ml) FIG. 5C: Total number of proteolytic bacteria (p.m.y./ml) FIG. 5D: Total number of lipolytic bacteria (p.m.y./ml) FIG. 5E: Total number of bacteria producing phospholipase (p.m.y./ml). […]

SMILES: N#N [nitrogen gas]
- growth of P. fluorescens strain versus control culture in normal air [1]: grew slower
- proteolytic activity of the strain [1]: very low compared with that of the control culture
- elimination of the bacteria which produce phospholipase ([2]; 6° C., N1 environment (120 ml/min), adequately long treatment period, three raw milk samples): possible to eliminate the bacteria which produce phospholipase
- time from beginning of nitrogen gas treatment to elimination of microbes which produce phospholipase ([2]; 12.0° C., N1 environment (120 ml/min), Example 4 sample): ≤ 96 h
- growth of the aerobic bacteria which secrete phospholipase ([2]; 12.0° C., N1 environment (120 ml/min), Examples 4 and 5, FIG. 5E): total prevention of growth
- growth of the number of the microbes which produce phospholipase ([2]; 12.0° C., N2 environment (40 ml/min), Example 4 sample): ceases in the N2 environment after 3 days
- growth of the aerobic bacteria which secrete phospholipase ([2]; 12.0° C., N2 environment (40 ml/min), after 2 days, FIG. 5E): total prevention of growth
- growth-preventing effect on phospholipase-positive bacteria ([2]; at 7° C.): impossible to detect this effect
- growth-preventing effect on phospholipase-positive bacteria ([2]; at 12° C.): the effect of the nitrogen gas was obvious
- growth of the anaerobic bacteria which secrete phospholipase ([3]; N1 environment (120 ml/min)): total prevention of growth
- growth of the anaerobic bacteria which secrete phospholipase ([3]; N2 environment (40 ml/min)): total prevention of growth
- growth of anaerobic microbes (anaerobic microbes): able to delay the growth
- growth of the psychrotrophic bacteria in raw milk and of the lactic acid bacteria [4]: only slightly slowed down the growth
- production of the proteolytic exoenzymes by the psychrotrophic bacteria [4]: effectively prevented the production
- elimination of bacteria of the B. cereus type from raw milk (Bacillus cereus): adequate for eliminating the bacteria of the B. cereus type
- haemolytic microbes in the raw milk (haemolytic bacteria; N1 environment (120 ml/min)): none
- haemolytic microbes, less than in the control environment (haemolytic bacteria; N2 environment (40 ml/min)): 2 log-units
- inhibition of Pseudomonas strains (four Pseudomonas strains): did not establish that pure nitrogen is capable of significantly inhibiting
- formation (sporulation) of aerobic spores [5]: does not increase the formation (sporulation)
